The target in one data set is ERα (Homo sapiens (Human), UniProt P03372). The experiment in a line: Degradation effect of compound on ERα (ERα DuoSet IC ELISA in MCF-7 cells). The following applies: 24 h with compound, read-out: IC50 value of ERα degradation by compound. The data set is classed as cell-based. On the procedure: In this test example, ERα DuoSet IC ELISA Kit (R&D, DYC5715) was used to detect the degradation effect of the compound on ERα. On the first day of the experiment, human breast cancer cells MCF-7 (the source was as above) were inoculated into a 24-well plate. The culture medium was an MEM culture medium containing 10% of activated-carbon-treated FBS (Tocyto, UT61204), 1% of pyruvic acid and 1% of nonessential amino acid. The inoculation density was 150,000 cells/well. The cells were cultured at 37° C., 5% CO2 for 24 h.
Chain of ERα (P03372 whole entry): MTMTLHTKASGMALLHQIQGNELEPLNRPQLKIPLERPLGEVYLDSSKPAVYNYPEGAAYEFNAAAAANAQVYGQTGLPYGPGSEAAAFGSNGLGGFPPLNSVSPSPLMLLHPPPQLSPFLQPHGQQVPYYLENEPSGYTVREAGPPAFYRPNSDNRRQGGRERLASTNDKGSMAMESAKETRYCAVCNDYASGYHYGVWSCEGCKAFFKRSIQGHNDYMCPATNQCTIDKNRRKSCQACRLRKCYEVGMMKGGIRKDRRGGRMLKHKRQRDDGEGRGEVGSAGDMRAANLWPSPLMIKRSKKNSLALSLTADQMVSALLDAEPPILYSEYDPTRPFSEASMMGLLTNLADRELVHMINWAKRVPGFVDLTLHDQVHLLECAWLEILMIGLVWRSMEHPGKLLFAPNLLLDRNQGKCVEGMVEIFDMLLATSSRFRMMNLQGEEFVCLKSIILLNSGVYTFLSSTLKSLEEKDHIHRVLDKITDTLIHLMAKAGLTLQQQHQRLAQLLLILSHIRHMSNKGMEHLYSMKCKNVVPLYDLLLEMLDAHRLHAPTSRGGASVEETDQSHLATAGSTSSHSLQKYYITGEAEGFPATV
On the second day of the experiment, the compound to be tested was diluted in gradient and added to a 24-well plate containing cells. The cells were cultured for 24 h at 37° C., 5% CO2. ERα capture antibody was diluted to 1 μg/ml with PBS (Corning, 21-040-CVR) and added to a 96-well plate at 100 μL/well, and the plate was […] coated overnight at room temperature.
On the third day of the experiment, the coated 96-well plate was washed three times with PBS, 300 μL of a blocking solution (R&D, DY995) was added to each well, and the plate was blocked at room temperature for 1 h. The 24-well plate was washed once with PBS, and the residual liquid was sucked off. […] The diluted cell lysate was taken and added to the blocked 96-well plate, with 100 μL per well, and incubated at room temperature for 2 h. The plate was washed three times with a washing solution (R&D, WA126), and a primary antibody was then added. After incubation for 1 h, the 96-well plate was washed four times, a secondary antibody was added, and incubation was carried out at room temperature in the dark for 30 min. The plate was washed four times with the washing solution, and TMB (R&D, DY999) was added. After 15 minutes of development, the reaction was terminated with a stop solution (R&D, DY994), and the light absorption at 450 nm was read.

A short description of data set [1]: Stability in human liver microsomes in vitro. To be noted: human liver microsomes; for half-life: microsome protein 1 mg/mL working solution, NADPH; for CLint scaled: scaled to liver; for microsomal CLint: read-out: CLint(mic). It counts as in vitro ADME. On the procedure: Test Example 4: Test for Stability in Human Liver Microsomes In Vitro Eight 96-well incubation plates were prepared and named [NT], Blank60 and NCF60, respectively. […] No test compound or control compound was added to Blank60 plate, and samples were taken after incubation for 60 min. NCF60 plate was incubated with a potassium phosphate buffer instead of an NADPH regeneration system solution (Sigma, N0505) for 60 min. […] Only the microsome working solution was added to Blank60 plate, and the incubation plates Blank60, T5, T15, T30, T45 and T60 except T0 and NCF60 were then placed in a water bath at 37° C. and pre-incubated for about 10 min. To the samples of T0 plate, 600 μL of a stop solution (acetonitrile:methanol (95:5, v/v) solution containing 100 ng/mL of tolbutamide (Sigma, T0891)) was added first, and the NADPH regeneration system working solution was then added. 98 μL of a potassium phosphate buffer was added to each well of NCF60 plate and incubated for 60 min. After the pre-incubation in the incubation plates Blank60, T5, T15, T30, T45 and T60 was completed, 98 μL of the NADPH regeneration system working solution was added to each sample well to initiate the reaction. After an appropriate incubation time (such as 5, 15, 30, 45 and 60 min), 600 μL of a stop solution was added to each sample well and the control sample well in Blank60, […] the reaction. All the sample plates were shaken uniformly and centrifuged at 3220×g for 20 min. 200 μL of test sample supernatant was separately taken and diluted in 200 μL of an aqueous solution containing 0.3% formic acid for LC-MS/MS analysis, and 100 μL of control sample supernatant was taken and diluted in 300 μL of pure water for LC-MS/MS analysis. Calculation was performed according to the following formula: [formula] [formula] [formula] [formula] [formula] [formula]
(In general: Microsomes from liver hold many membrane-bound enzymes, among them those of drug oxidation.)

Another data set deals with GST-ERα-LBD (Homo sapiens (Human), UniProt P03372). The experiment in a line: ERα TR-FRET test. The data set is classed as biochemical. To be noted: estradiol final concentration 1.5 nM, biotin-SRC2. Here is the method: 1× Tris-HCl (Sigma, PHG0002) protein buffer was prepared and mixed for later use. The compound to be detected was prepared into a stock solution with a concentration of 2 mM and then subjected to serial 3-fold gradient dilution, resulting in a total of 10 concentrations.
Chain of GST-ERα-LBD (P03372 311-547): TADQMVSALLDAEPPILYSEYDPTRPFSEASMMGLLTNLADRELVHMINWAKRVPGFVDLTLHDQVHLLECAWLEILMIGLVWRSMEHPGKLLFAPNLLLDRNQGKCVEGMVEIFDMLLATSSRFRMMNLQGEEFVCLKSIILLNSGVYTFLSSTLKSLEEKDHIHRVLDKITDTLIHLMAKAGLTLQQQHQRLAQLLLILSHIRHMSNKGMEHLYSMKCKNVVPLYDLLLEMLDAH
Preparation of 1× protein mixed solution: firstly, 2× GST-ERα-LBD (Invitrogen, A15677)/MAb anti-GST-Eu (Cisbio, 61GSTKLA) mixed solution was prepared according to the following table.
2× biotin-SRC2/streptavidin-XL665 (Cisbio, 610SAXLA) mixed solution was prepared.
The above 2× GST-NR-LBD/ MAb anti-GST-Eu solution and 2× biotin-SRC2/streptavidin-XL665 solution were uniformly mixed at a volume ratio of 1:1; and the 1× protein mixed solution was added to each well of a 384-well plate, with 20 μL being added per well, the 384-well plate was put into a centrifuge and centrifuged at room temperature at 1000 rpm for 10 seconds, and it was taken out, then left to stand at room temperature for 3 h, and then read by EnVision multifunctional microplate reader.
The inhibition rate was calculated according to the following formula: […]
The data were imported into Graphpad Prism, and Log(agonist) vs. response-variable slope was used for curve fitting.
Y=Bottom+(Top−Bottom)/(1+10^((LogEC50−X)*HillSlope)) Fitting formula

The subject of data set [2] is Human breast cancer cells MCF-7. The experiment in a line: MCF-7 cell proliferation experiment. The following applies: Homo sapiens, MCF7; MCF-7 cells, 72 hours, Cell Titer-Glo. The data set is classed as cell-based. On the procedure:
Test Example 2: MCF-7 Cell Proliferation Experiment
Human breast cancer cells MCF-7 (HTB-22, purchased from ATCC) were inoculated into a 96-well plate. The culture medium was an MEM (Hyclone, SH30024.01B) culture medium containing 10% of FBS (Gibco, 10099-141), 1% of pyruvic acid (Sigma, S8636), and 1% of nonessential amino acid (Sigma, M7145), and the inoculation density was 4,000 cells/well. The cells were cultured at 37° C., 5% CO2. The compound was prepared into a 20 mM stock solution, which was subjected to gradient dilution to a final concentration of […] with 100% DMSO (Sigma, D2650) and then diluted 20 folds with a culture medium containing 2% of FBS. After 24 hours of culture, the culture medium was removed, 90 μL of a culture medium containing 2% of FBS and 10 μL of drug were added to each well, while 10 μL of DMSO was added to the control group, and they were gently shaken and mixed. The blank group only contained 100 μL of 2% FBS culture medium. They were placed in an incubator and cultured at 37° C., 5% CO2. After 72 hours, 50 μL of mixed Cell Titer-Glo (Promega, G7571) was added. They were shaken and mixed uniformly, and placed at room temperature for 10 min. The chemiluminescence signal value was determined. The negative control was 0.5% DMSO well.
In general terms: In ATP-based viability assays light output follows the ATP content of the culture.

pIC50: −log10 of the molar value.

In general, half-life refers to how long it takes for the measured level to halve. Lower therefore signals rapid decline. Broadly, the CLint scaled is the capacity of the preparation to metabolise the compound, expressed as a volume cleared per time. High values mean faster metabolism, low ones greater metabolic stability. As a reminder, the pIC50 is −log10 of the IC50, conventionally taken in molar units. High values mean a low IC50, low ones a high IC50.

`CC(C)CN1[C@H](c2c(F)cc(OCCN3CC(CF)C3)cc2F)c2ccc3[nH]c(=O)oc3c2C[C@H]1C` [Example 1]: the DC50 at ERα was 0.62 nM. In addition, in data set [1], the half-life was 1.53 h, the CLint scaled was found to be 13.6 mL/min/kg and the microsomal CLint was 15.1 µL/min/mg. For the same compound, the pIC50 against GST-ERα-LBD is 8.05. The compound also gave a pIC50 in data set [2] of 9.41.

On to `C[C@@H]1Cc2c(ccc3[nH]c(=O)oc23)[C@@H](c2c(F)cc(NC3CN(CCCF)C3)cc2F)N1CC(F)(F)CO` [Example 9, (6S,8R)-7-(2,2-difluoro-3-hydroxypropyl)-6-(2,6-difluoro-4-((1-(3-fluoropropyl)azetidin-3-yl)amino)phenyl)-8-methyl-6,7,8,9-tetrahydrooxazolo[5,4-f]isoquinolin-2(3H)-one], for which the DC50 on ERα came out at 0.39 nM. The negative logarithm of the IC50 (pIC50) was 7.67 on GST-ERα-LBD and 9.72 in data set [2].

On to `C[C@@H]1Cc2c(ccc3[nH]c(=O)oc23)[C@@H](c2c(F)cc(NC3CN(CCCF)C3)cc2F)N1CC(F)(F)F` [Example 10, (6S,8R)-6-(2,6-difluoro-4-((1-(3-fluoropropyl)azetidin-3-yl)amino)phenyl)-8-methyl-7-(2,2,2-trifluoroethyl)-6,7,8,9-tetrahydrooxazolo[5,4-f]isoquinolin-2(3H)-one], for which the DC50 on ERα is 0.41 nM. In addition, in data set [1], the half-life was 1.94 h, the CLint scaled stood at 8.1 mL/min/kg and the microsomal CLint worked out at 9 µL/min/mg. For the same compound, at GST-ERα-LBD, the pIC50 is 8.11. The compound also had a pIC50 in data set [2] of 9.70.

With `C[C@@H]1Cc2c(ccc3[nH]c(=O)oc23)[C@@H](c2c(F)cc(OC3CN(CCCF)C3)cc2F)N1CC(F)(F)F` [Example 12, (6S,8R)-6-(2,6-difluoro-4-((1-(3-fluoropropyl)azetidin-3-yl)oxy)phenyl)-8-methyl-7-(2,2,2-trifluoroethyl)-6,7,8,9-tetrahydrooxazolo[5,4-f]isoquinolin-2(3H)-one], the DC50 at ERα amounted to 0.57 nM. In addition, in data set [1], the half-life turned out to be 1.73 h, the CLint scaled is 8.9 mL/min/kg and the microsomal CLint came to 9.8 µL/min/mg. At GST-ERα-LBD, this compound showed a pIC50 of 7.81. Besides, the pIC50 in data set [2] was 9.31.

In the case of `C[C@@H]1Cc2c(ccc3[nH]c(=O)oc23)[C@@H](c2c(F)cc(N3CC4(CN(CCF)C4)C3)cc2F)N1CC(F)(F)CO` [Example 14, (6S,8R)-7-(2,2-difluoro-3-hydroxypropyl)-6-(2,6-difluoro-4-(6-(2-fluoroethyl)-2,6-diazspiro[3.3]hept-2-yl)phenyl)-8-methyl-6,7,8,9-tetrahydrooxazolo[5,4-f]isoquinolin-2(3H)-one], in data set [1], the half-life amounted to 1.82 h, the CLint scaled amounted to 8.7 mL/min/kg and the microsomal CLint is 9.5 µL/min/mg. Moreover, on GST-ERα-LBD, the pIC50 was 7.39. The compound also had a pIC50 in data set [2] of 9.36.

For the compound `COc1cc(NC2CN(CCCF)C2)ccc1[C@@H]1c2ccc3[nH]c(=O)oc3c2C[C@@H](C)N1CC(F)(F)F` [Example 25, (6S,8R)-6-(4-((1-(3-fluoropropyl)azetidin-3-yl)amino)-2-methoxyphenyl)-8-methyl-7-(2,2,2-trifluoroethyl)-6,7,8,9-6,7,8,9-tetrahydrooxazolo[5,4-f]isoquinolin-2(3H)-one], the DC50 at ERα was 0.34 nM. Also, in data set [1], the half-life was 1.76 h, the CLint scaled was 8.4 mL/min/kg and the microsomal CLint came to 9.6 µL/min/mg. In addition, the pIC50 at GST-ERα-LBD is 7.94. Further, in data set [2], the pIC50 is 9.62.

`C[C@@H]1Cc2c(ccc3[nH]c(=O)oc23)[C@@H](c2ccc(NC3CN(CCCF)C3)cn2)N1CC(F)(F)F` [Example 26, (6S,8R)-6-(5-((1-(3-fluoropropane)azetidin-3-yl)amino)pyridin-2-yl)-8-methyl-7-(2,2,2-trifluoroethyl)-6,7,8,9-tetrahydroxazolo[5,4-f]isoquinolin-2(3H)-one]: the negative-log IC50 (pIC50) against GST-ERα-LBD is 7.23; in data set [2] it was 9.26.

Consider `COc1cc(O[C@H]2CCN(CCCF)C2)ccc1[C@@H]1c2ccc3[nH]c(=O)oc3c2C[C@@H](C)N1CC(F)(F)F` [Example 30, (6S,8R)-6-(4-(((S)-1-(3-fluoropropyl)pyrrolidin-3-yl)oxy)-2-methoxyphenyl)-8-methyl-7-(2,2,2-trifluoroethyl)-6,7,8,9-tetrahydroxazolo[5,4-f]isoquinolin-2(3H)-one], for which the DC50 on ERα turned out to be 0.35 nM. Besides, in data set [1], the half-life is 1.58 h, the CLint scaled stood at 14.4 mL/min/kg and the microsomal CLint came out at 15.8 µL/min/mg. This compound also gave a pIC50 against GST-ERα-LBD of 8.05. In addition, the pIC50 in data set [2] was 9.68.

In the case of `COc1cc(NC2CN(CCCF)C2)ccc1[C@@H]1c2ccc3[nH]c(=O)oc3c2C[C@@H](C)N1CC1(F)CC1` [Example 31], the DC50 on ERα is 0.75 nM. Further, in data set [1], the half-life is 1.39 h, the CLint scaled was determined as 18.4 mL/min/kg and the microsomal CLint stood at 17.5 µL/min/mg. On GST-ERα-LBD, this compound had a pIC50 of 7.34. Besides, in data set [2], the pIC50 is 9.07.

In the case of `COc1cc(NC2CN(CCCF)C2)ccc1[C@@H]1c2ccc3[nH]c(=O)oc3c2C[C@@H](C)N1CC(C)(F)F` [Example 32], the DC50 on ERα amounted to 0.42 nM. Moreover, in data set [1], the half-life was 1.71 h, the CLint scaled is 9 mL/min/kg and the microsomal CLint is 9.8 µL/min/mg. In addition, the pIC50 on GST-ERα-LBD was 7.83. Further, in data set [2], the pIC50 is 9.41.

For the origin of these results see patent publication US20240217988A1, “ESTROGEN RECEPTOR ANTAGONIST” (Shenzhen Forward Pharmaceuticals Co., Limited, priority 2021, published 2024).
